In PubChem BioAssay (NCI) one finds TGI data, which are given here for four compounds.

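96-well plates; 48 h exposure; 5 concentrations. Endpoints by linear interpolation between flanking doses. Not reached: highest tested concentration assigned. TGI: total growth inhibition.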

One test concerns A549 NSCLC. Nature of the test: growth of human tumour cells (NCI), 48 h.
On to `CC(C)(C)OC(=O)NCCCCC(NC(=O)OCc1ccccc1)C(N)=O` (stereo unspecified), for which the TGI was over 100 µM.
Still for that read-out and setting: the figure for `Cc1ccc(S(=O)(=O)N2CCN3C(=O)c4ccccc4C32c2ccc(F)cc2)cc1` (stereo unspecified) is over 100 µM; for `O=C1CC(c2ccco2)C2(C(=O)NC(=O)NC2=O)C(c2ccco2)C1` (stereo unspecified) it is over 75 µM.

The next test has as its system HL-60(TB) leukemia. Nature of the test: growth of human tumour cells (NCI), 48 h.
`CC(C)(C)OC(=O)NCCCCC(NC(=O)OCc1ccccc1)C(N)=O` (stereo unspecified) had a TGI of over 100 µM.
The same measure, in the same setting: the figure for `O=C1CC(c2ccco2)C2(C(=O)NC(=O)NC2=O)C(c2ccco2)C1` (stereo unspecified) is over 75 µM.

In a further test the test system is SR leukemia. Nature of the test: growth of human tumour cells (NCI), 48 h.
As for `O=C1CC(=O)N(c2ccccc2)N1/C(=C/c1ccccc1)c1ccccc1`, the TGI amounted to 40.9 µM.
Compound `CC(C)(C)OC(=O)NCCCCC(NC(=O)OCc1ccccc1)C(N)=O` (stereo unspecified) had a TGI of over 100 µM.
Compound `Cc1ccc(S(=O)(=O)N2CCN3C(=O)c4ccccc4C32c2ccc(F)cc2)cc1` (stereo unspecified) displayed a TGI of 52.8 µM.
On to `O=C1CC(c2ccco2)C2(C(=O)NC(=O)NC2=O)C(c2ccco2)C1` (stereo unspecified), for which the TGI was over 75 µM.

For another test, the system named is CCRF-CEM leukemia. Briefly: growth of human tumour cells (NCI), 48 h.
In the case of `O=C1CC(=O)N(c2ccccc2)N1/C(=C/c1ccccc1)c1ccccc1`, the TGI was determined as 3.57 µM.
Take `CC(C)(C)OC(=O)NCCCCC(NC(=O)OCc1ccccc1)C(N)=O` (stereo unspecified): the TGI is over 100 µM.
Same read-out and setting: to `Cc1ccc(S(=O)(=O)N2CCN3C(=O)c4ccccc4C32c2ccc(F)cc2)cc1` (stereo unspecified) belongs 80 µM; to `O=C1CC(c2ccco2)C2(C(=O)NC(=O)NC2=O)C(c2ccco2)C1` (stereo unspecified), over 75 µM.

The next test concerns MALME-3M melanoma. Briefly: growth of human tumour cells (NCI), 48 h.
The compound `CC(C)(C)OC(=O)NCCCCC(NC(=O)OCc1ccccc1)C(N)=O` (stereo unspecified) had a TGI of over 100 µM.
For the compound `Cc1ccc(S(=O)(=O)N2CCN3C(=O)c4ccccc4C32c2ccc(F)cc2)cc1` (stereo unspecified), the TGI was over 100 µM.
For the compound `O=C1CC(c2ccco2)C2(C(=O)NC(=O)NC2=O)C(c2ccco2)C1` (stereo unspecified), the TGI is over 75 µM.

In another test the test system is OVCAR-4 ovarian. Nature of the test: growth of human tumour cells (NCI), 48 h.
As to `O=C1CC(=O)N(c2ccccc2)N1/C(=C/c1ccccc1)c1ccccc1`, the TGI turned out to be 60.5 µM.
Regarding `CC(C)(C)OC(=O)NCCCCC(NC(=O)OCc1ccccc1)C(N)=O` (stereo unspecified), the TGI is over 100 µM.
Same read-out and setting: to `Cc1ccc(S(=O)(=O)N2CCN3C(=O)c4ccccc4C32c2ccc(F)cc2)cc1` (stereo unspecified) belongs over 100 µM; to `O=C1CC(c2ccco2)C2(C(=O)NC(=O)NC2=O)C(c2ccco2)C1` (stereo unspecified), over 75 µM.

The next test has as its system TK-10 renal. Nature of the test: growth of human tumour cells (NCI), 48 h.
Consider `O=C1CC(=O)N(c2ccccc2)N1/C(=C/c1ccccc1)c1ccccc1`, for which the TGI was found to be 48.6 µM.
Compound `CC(C)(C)OC(=O)NCCCCC(NC(=O)OCc1ccccc1)C(N)=O` (stereo unspecified) came in with a TGI of over 100 µM.
Still for that read-out and setting: to `Cc1ccc(S(=O)(=O)N2CCN3C(=O)c4ccccc4C32c2ccc(F)cc2)cc1` (stereo unspecified) belongs over 100 µM; to `O=C1CC(c2ccco2)C2(C(=O)NC(=O)NC2=O)C(c2ccco2)C1` (stereo unspecified), over 75 µM.

The next test deals with A498 renal. Nature of the test: growth of human tumour cells (NCI), 48 h.
`Cc1ccc(S(=O)(=O)N2CCN3C(=O)c4ccccc4C32c2ccc(F)cc2)cc1` (stereo unspecified) displayed a TGI of 63.5 µM.
Still for that read-out and setting: the figure for `O=C1CC(c2ccco2)C2(C(=O)NC(=O)NC2=O)C(c2ccco2)C1` (stereo unspecified) is over 75 µM.

A further test deals with HT29 colon. Nature of the test: growth of human tumour cells (NCI), 48 h.
Regarding `O=C1CC(=O)N(c2ccccc2)N1/C(=C/c1ccccc1)c1ccccc1`, the TGI is 44.2 µM.
Same read-out and setting: to `CC(C)(C)OC(=O)NCCCCC(NC(=O)OCc1ccccc1)C(N)=O` (stereo unspecified) belongs over 100 µM.
With `Cc1ccc(S(=O)(=O)N2CCN3C(=O)c4ccccc4C32c2ccc(F)cc2)cc1` (stereo unspecified), the TGI is over 100 µM.
Same read-out and setting: the figure for `O=C1CC(c2ccco2)C2(C(=O)NC(=O)NC2=O)C(c2ccco2)C1` (stereo unspecified) is over 75 µM.

A further test relates to HCC-2998 colon. Briefly: growth of human tumour cells (NCI), 48 h.
For `O=C1CC(=O)N(c2ccccc2)N1/C(=C/c1ccccc1)c1ccccc1`, the TGI was 37.3 µM.
On the same count and under the same terms, to `CC(C)(C)OC(=O)NCCCCC(NC(=O)OCc1ccccc1)C(N)=O` (stereo unspecified) belongs over 100 µM; to `Cc1ccc(S(=O)(=O)N2CCN3C(=O)c4ccccc4C32c2ccc(F)cc2)cc1` (stereo unspecified), over 100 µM.
Still for that read-out and setting: to `O=C1CC(c2ccco2)C2(C(=O)NC(=O)NC2=O)C(c2ccco2)C1` (stereo unspecified) belongs over 75 µM.

For the next test, the system named is NCI-H226 lung. Briefly: growth of human tumour cells (NCI), 48 h.
`O=C1CC(=O)N(c2ccccc2)N1/C(=C/c1ccccc1)c1ccccc1` registered a TGI of 73.5 µM.
`CC(C)(C)OC(=O)NCCCCC(NC(=O)OCc1ccccc1)C(N)=O` (stereo unspecified) displayed a TGI of over 100 µM.
Same read-out and setting: to `Cc1ccc(S(=O)(=O)N2CCN3C(=O)c4ccccc4C32c2ccc(F)cc2)cc1` (stereo unspecified) belongs over 100 µM.

The test system of the next test is LOX IMVI melanoma. Briefly: growth of human tumour cells (NCI), 48 h.
`O=C1CC(=O)N(c2ccccc2)N1/C(=C/c1ccccc1)c1ccccc1` gave a TGI of 3.06 µM.
Consider `CC(C)(C)OC(=O)NCCCCC(NC(=O)OCc1ccccc1)C(N)=O` (stereo unspecified), for which the TGI was over 100 µM.
The same measure, in the same setting: to `O=C1CC(c2ccco2)C2(C(=O)NC(=O)NC2=O)C(c2ccco2)C1` (stereo unspecified) belongs over 75 µM.

A further test has as its system RXF 393 renal. Nature of the test: growth of human tumour cells (NCI), 48 h.
The compound `O=C1CC(=O)N(c2ccccc2)N1/C(=C/c1ccccc1)c1ccccc1` gave a TGI of 36.5 µM.
On the same count and under the same terms, the figure for `CC(C)(C)OC(=O)NCCCCC(NC(=O)OCc1ccccc1)C(N)=O` (stereo unspecified) is over 100 µM; for `Cc1ccc(S(=O)(=O)N2CCN3C(=O)c4ccccc4C32c2ccc(F)cc2)cc1` (stereo unspecified) it is over 100 µM.
Still for that read-out and setting: the figure for `O=C1CC(c2ccco2)C2(C(=O)NC(=O)NC2=O)C(c2ccco2)C1` (stereo unspecified) is over 75 µM.

The subject of another test is SK-OV-3 ovarian. Briefly: growth of human tumour cells (NCI), 48 h.
As for `O=C1CC(=O)N(c2ccccc2)N1/C(=C/c1ccccc1)c1ccccc1`, the TGI was determined as 76.5 µM.
As to `CC(C)(C)OC(=O)NCCCCC(NC(=O)OCc1ccccc1)C(N)=O` (stereo unspecified), the TGI is over 100 µM.
The compound `Cc1ccc(S(=O)(=O)N2CCN3C(=O)c4ccccc4C32c2ccc(F)cc2)cc1` (stereo unspecified) returned a TGI of over 100 µM.
Same read-out and setting: to `O=C1CC(c2ccco2)C2(C(=O)NC(=O)NC2=O)C(c2ccco2)C1` (stereo unspecified) belongs over 75 µM.

A further test relates to UACC-257 melanoma. Briefly: growth of human tumour cells (NCI), 48 h.
`O=C1CC(=O)N(c2ccccc2)N1/C(=C/c1ccccc1)c1ccccc1`: the TGI stood at 59.2 µM.
On the same count and under the same terms, the figure for `CC(C)(C)OC(=O)NCCCCC(NC(=O)OCc1ccccc1)C(N)=O` (stereo unspecified) is over 100 µM; for `Cc1ccc(S(=O)(=O)N2CCN3C(=O)c4ccccc4C32c2ccc(F)cc2)cc1` (stereo unspecified) it is over 100 µM.
As to `O=C1CC(c2ccco2)C2(C(=O)NC(=O)NC2=O)C(c2ccco2)C1` (stereo unspecified), the TGI is over 75 µM.

For another test, the system named is UACC-62 melanoma. Briefly: growth of human tumour cells (NCI), 48 h.
Consider `O=C1CC(=O)N(c2ccccc2)N1/C(=C/c1ccccc1)c1ccccc1`, for which the TGI was 37.3 µM.
As for `CC(C)(C)OC(=O)NCCCCC(NC(=O)OCc1ccccc1)C(N)=O` (stereo unspecified), the TGI is over 100 µM.
Still for that read-out and setting: to `Cc1ccc(S(=O)(=O)N2CCN3C(=O)c4ccccc4C32c2ccc(F)cc2)cc1` (stereo unspecified) belongs over 100 µM.
Regarding `O=C1CC(c2ccco2)C2(C(=O)NC(=O)NC2=O)C(c2ccco2)C1` (stereo unspecified), the TGI is over 75 µM.
